From paper PMC10946950, “Stretching the Bisalkyne Raman Spectral Palette Reveals a New Electrophilic Covalent Motif” (Chemistry (Weinheim an Der Bergstrasse, Germany), 2023)
“Also recorded” adds a separate entry of the source.

What was measured:
[1] = system: ES2 cells; experiment: AlamarBlue cell viability assay; format: cell-based; settings: Homo sapiens, ES-2, incubation 72 h
Experimental: Cell Culture. Human ovarian cancer cell line ES2 was purchased from the American Type Culture Collection, and cells maintained in a humidified incubator at 37°C and 5% CO2 in Dulbecco’s Modified Eagle Medium (DMEM, high glucose, Pyruvate, No Glutamine) (Gibco, cat#21969035), 10% FCS, 1% L-Glutamine (200 mM, ThermoFisher, cat#25-030-081), 1% Pen/Strep (ThermoFisher, cat# […]
AlamarBlue cell viability assay. ES2 cells were plated in sextuplicate wells in a 96-well plate at 3000 cells per well. Compounds were made up as 10 mM stocks in DMSO and added to the cells after 24 h at a range of concentrations (100 µM, 30 µM, 10 µM, 3 µM, 1 µM, 0.3 µM, 0.1 µM, 0.03 µM, 0.01 µM, DMSO only) in 100µl. As a background control 6 wells were plated with media with added DMSO and without cells. After 72 h, 11µl (10%) alamarBlue cell viability reagent (ThermoFisher, cat# DAL1025) was added to each well, including the background control. The plate was incubated at 37°C for 4 h after which the absorbance of the wells was measured with a standard spectrophotometer (Tecan Spark 20M) read at 540nm excitation and 580nm emission wavelength. For each sample the background signal intensity was subtracted from the sample signal intensity and then normalized to the DMSO […]
Subsequent analysis was performed on GraphPad Prism 9 software where the concentrations were converted to a logarithmic scale to which a non -linear regression curve was fitted using the log(inhibitor) vs normalized response with a variable slope model to calculate EC50 values.
Figure S3. EC50 values for compounds 3a – 3n in ES2 cells. Values calculated from 6 technical replicates following incubation for 72 h.
(§1) (1 picture or pasted object on this page, not shown here)

[2] = LC-MS based glutathione (GSH) reactivity assay; format: in vitro ADME; settings: for conversion to GS-adduct over 24 h / extent of conversion to GS-adducts (in words) / conversion to GS-adduct within 5 min: GSH, ACN:PBS buffer (1:1), 37 °C; for conversion to GS-adduct over 24 h / conversion to GS-adduct within 5 min: LC-MS 254 nm; for extent of conversion to GS-adducts (in words): runs at 5 min, 2 h; for conversion to GS-adduct over 24 h / extent of conversion to GS-adducts (in words): 24 h; for GSH reactivity compared with the electronically similar tag: 3b vs 3a, 3f vs BADY, 3g vs 3e, data not shown
Experimental: LC-MS Assay: To 0.5 ml of GSH (50 mmol) in assay buffer (100 mM PBS in H2O) at 37 °C, 0.5 ml of the diyne tag (5 mmol) in CH3CN was added to give a final concentration of 25 mmol and 2.5 mmol of GSH and diyne tags respectively. A magnetic stirbar was added to the assay mixture and stirred at 37 °C. Aliquots from the assay mixture were pipetted out and diluted for LC-MS (ESI+) submissions at 5 min, 2 h and 24 h time points. The chromatogram peaks at 254 nm were extracted to pick the UV-active [M+H]+ values corresponding to the unreacted tags and GS-Tag adducts. Relative intensity (or % conversion) of GS-Tag adduct compared to the unreacted tag for individual LC -MS run was calculated by taking the percentage of mAUGS-Tag divided by mAUGS-Tag + mAUunreacted tag (if A -> B, then % conversion = B/A+B). When [M+H]+ peak of the unreacted tag was below detectable limits, adduct […]
Figure S4. Overlay of the UV-active chromatograms extracted at 254 nm from the LC-MS runs of 3a, 3d, BADY, 3e, 3j and 3k. The chromatograms for each tag at 5 min (black), 2 h (green), 24 h (red) are overlaid. Minimal (3a, BADY), partial (3e) and full (3d, 3j and 3k) conversion were observed which correlated with the ring electronics. […]
are overlaid in a single graph. Conversion is deemed complete when the tag (M) was below detectable limits. * Tags isolated as a mixture of hetero-and homodimers or insoluble in the assay buffer (3i and 3c) were not included in the study. Tags 3b, 3f and 3g have not been shown as their reactivities were similar to the electronicall y similar 3a, BADY and 3e respectively. […]
as §1

[3] = NMR based GSH-reactivity assay; format: in vitro ADME; settings: CD3CN:PBS 1:1, 37 °C
Experimental: NMR Assay: To 0.5 ml of assay buffer (1:1 CD3CN : 100 mM PBS in H2O), the individual diyne tags (10 mmol) were added, transferred to an NMR tube and 1H NMR spectra was acquired. To another 0.5 ml of the assay buffer, GSH (100 mmol) was added, which was then transferred to the NMR tube containing the buffer solution of the tags. The solution was mixed by inverting the tube several times. A final solution of 5 mmol tag and 50 mM GSH was achieved, a magnetic stirbar was added to the tubes and the NMR tubes were left on a stirplate at 37 °C. 1H NMR was recorded at 310 K (37 °C) after ~5 min and 24 h of reaction set up.
as §1

Row | conversion to GS-adduct over 24 h [2] | extent of conversion to GS-adducts (in words) [2] | GSH reactivity compared with the electronically similar tag [2] | Compound | EC50 [1] [µM] | other results
1 | – | – | similar | COC(=O)c1ccc(C#CC#Cc2cncn2C)cc1 [3 b] | ≥ 100 | –
2 | ~25% | partial | – | COC(=O)c1ccc(C#CC#Cc2ccccn2)cc1 [3 e] | 17.6 | –
3 | – | – | similar | COC(=O)c1ccc(C#CC#Cc2cccnc2)cc1 [3 f] | ≥ 100 | –
4 | – | – | similar | COC(=O)c1ccc(C#CC#Cc2ccncc2)cc1 [3 g] | 24.1 | –

Continued, molecule first:

Row | Compound | conversion to GS-adduct over 24 h [2] | extent of conversion to GS-adducts (in words) [2] | GSH reactivity compared with the electronically similar tag [2] | EC50 [1] [µM] | other results
5 | COC(=O)c1ccc(C#CC#Cc2cncn2C)n1C [3 a] | 1–2% | Minimal | – | ≥ 100 | change of 1H NMR 24 h post GSH addition [3]: no changes
6 | COC(=O)c1ccc(C#CC#Cc2nccs2)cc1 [3 d] | reacted completely | complete conversion | – | – | conversion to GS-adduct within 5 min [2]: ~25%; extent of conversion to GS-adducts (in words) ([2]; listed as 3d): full
7 | COC(=O)c1ccc(C#CC#Cc2ccccn2)nc1 [3 i] | – | – | – | 1.63 | –
8 | COC(=O)c1ccc(C#CC#Cc2ncccn2)nc1 [3 j] | – | complete conversion | – | 0.54 | conversion to GS-adduct within 5 min [2]: reacted completely; also recorded: complete conversion; conversion to GS-adduct within 5 min ([2]; listed as 3j): full conversion; extent of conversion to GS-adducts (in words) ([2]; listed as 3j): full
9 | C(C#Cc1ccccc1)#Cc1ccccc1 [BADY, reference compound] | 1–2% | Minimal | – | ≥ 100 | change of 1H NMR 24 h post GSH addition [3]: no changes
